Paper PMC7432838, “A Curcumin Analog Exhibits Multiple Biologic Effects on the Pathogenesis of Alzheimer’s Disease and Improves Behavior, Inflammation, and β-Amyloid Accumulation in a Mouse Model” (International Journal of Molecular Sciences, 2020)

What was measured:
[1] = Pharmacokinetic study after oral administration in SD rats; type: in vivo, rat; conditions: SD rats, oral 150 mg/kg
Procedure: In order to evaluate the bioavailability of curcumin and its analog TML-6, pharmacokinetic studies were commissioned and conducted by the Development Center for Biotechnology (DCB, Taipei, Taiwan). The kinetics of curcumin and TML-6 in blood were collected at 0.25, 0.5, 1, 2, 4, 6, 8 and 10 h after oral administration of curcumin and TML-6 at the dose of 150 mg/kg in male Sprague–Dawley Rats.

[2] = tested on: 3xTg AD transgenic mice; experiment: Morris water maze test in 3xTg AD transgenic mice; type: in vivo, mouse; conditions: 150 mg/kg/day in diet for four months; six-month-old 3xTg AD mice; vs vehicle control
Procedure: (§1) The triplex transgenic mouse model (3xTg-AD, APP Swedish, MAPT P301L, and PSEN1 M146V) was adopted as the AD model and bred at the laboratory animal center of National Cheng Kung University (NCKU), Tainan, Taiwan. The mice were housed in a room maintained on a 12 h light–dark cycle and fed ad libitum. Six-month old 3xTg-AD mice were used for animal experiments. Experimental procedures for handling the mice were in accordance with the guidelines of the Institutional Animal Care and Use Committee (IACUC) of NCKU. These mice develop plaques and tangles pathology. Aβ deposition is progressive, and deposition appears as early as nine months for triplex-Tg mice. The AD transgenic mice were fed with the control diet (Laboratory Rodent Diet 5001, LabDiet, St. Louis, MO, USA), the control diet plus traditional curcumin (150 mg/kg), or the control diet plus TML-6 (150 mg/kg) for four months. Diets were stored at 4 °C and were added to mouse cage twice a week. The quantity of the diet consumed by the mice was determined daily. The concentration of curcumin and TML-6 in the diet was determined to be around 1.20 mg/g of diet after assaying by HPLC by the Development Center for the Biotechnology (DCB), Taipei, Taiwan.
For assessing spatial learning and memory, the Morris water maze was used as we described before. […] The time taken to reach the platform was recorded as escape latency.

[3] = tested on: Huh-7 cells; experiment: Cytotoxicity assay by Cell Counting Kit-8 (CCK-8); type: cell-based, human; conditions: Huh-7, 24 h
Procedure: The cytotoxicity assay was performed using the Cell Counting Kit-8 (CCK-8, Sigma). We dissolved 0.0524 g of TML-6 (molecular weight is 523.62 g/mol) in 10 mL DMSO to obtain TML-6 stock at 10 mM for cell line study. […] Briefly, Huh-7 cells were seeded overnight in 96-well plates at 5000 cells/well and then subjected to traditional curcumin or TML-6 treatment for 24 h. At each time point, a CCK-8 solution (0.25 mg/mL) was added to the medium in each well for an additional 4 h incubation, and absorbance was measured at 570 nm using an ELISA reader.

[4] = tested on: Iba-1 (microglial activation marker) in 3xTg AD mouse hippocampus; experiment: Immunofluorescence staining of Iba-1 in brain of 3xTg AD mice; type: in vivo; conditions: 150 mg/kg/day in diet for four months
Procedure: as §1, with “The AD transgenic mice were fed with the control diet (Laboratory Rodent Diet 5001, LabDiet, St. Louis, MO, USA), the control diet plus traditional curcumin (150 mg/kg), or the control diet plus TML-6 (150 mg/kg) for four months. Diets were stored at 4 °C and were added to mouse cage twice a week.” left out
(§2) Mice were anesthetized using pentobarbital (60 mg/kg, intravenous) and then transcardial perfusion was performed with 0.01 M PBS (pH 7.4). […] Images were captured by the TissureFAXS microscopy system and positive signals were quantified by TissueQuest software module (TissueGnostic, Vienne, Austria).

[5] = tested on: rat neuroblastoma B104-APP751 stable cell line; design: method as in PMID 20622013; conditions: 15 and 20 μM, no cytotoxicity; cited from earlier work
[6] = tested on: N2a/APPswe stable cells; experiment: Cell viability/morphology by micrographs during Aβ ELISA treatment; type: cell-based, mouse; conditions: 24 h
Procedure: (§3) Extracellular levels of soluble Aβ40 and Aβ42 were determined by LEGEND MAX™ β-Amyloid x-40 and X-42 ELISA Kit (Biolegend, San Diego, CA, USA). Overexpression of the APP Swedish mutation (APPswe) in the N2a neuronblastoma cell line was called the N2a/APPswe cell line. N2a/APPswe stable cells were seeded at 8 × 10^5 cells in 6 cm dishes. After overnight incubation, the cells were treated with curcumin and TML-6 for 24 h. […] The culture supernatant was collected and centrifuged at 1500× g at 4 °C for 5 min to remove cells. The culture supernatants from various treatments were conducted to examine the Aβ levels according to the manufacturer’s instructions. The samples for the detection of soluble Aβ levels were diluted in the supernatant at a 1:10 dilution for this experiment. Levels of soluble Aβ were detected by measuring the OD at 620 nm (Molecular Devices, San Jose, CA, USA). The calculation of Aβ levels was based on the standard curves of Aβ40 and Aβ42, respectively.

[7] = tested on: phospho-NF-κB in Huh-7 cells; experiment: Western blotting of phosphorylated NF-κB; type: cell-based, human; conditions: 10 µg/mL, 24 h, vs medium control
Procedure: (§4) After cells were seeded and treated with curcumin and TML-6 for 24 h, cells were washed with ice-cold PBS (Phosphate Buffered Saline) and lysed with 100 μL of RIPA cell lysis buffer (Pierce Biotechnology, Rockford, IL, USA) supplemented with protease and phosphatase inhibitors (Roche Diagnostics, Mannheim, Germany). Cell lysates were further cleaned by centrifugation at 14,000 rpm at 4 °C for 15 min. Protein concentration was determined using a Bradford assay (Bio-Rad, Hercules, CA, USA). For Western blot analysis, 20 μg of each sample was prepared for SDS-PAGE (SDS Poly-acrylamide-gel-electrophoresis) and denatured at 95 ℃ for 10 min. The samples prepared from total lysates were loaded and separated by SDS-PAGE (8% or 10%), and then transferred to PVDF membranes (pore size 0.45 μm; PerkinElmer, Waltham, MA, USA) by semi-dry transfer cell (Bio-Rad). After blocking with 5% skim milk in PBS-T (0.1% Tween-20), the membranes were hybridized with primary antibodies at 1/1000 dilution at 4 °C overnight. On the next day, membranes were washed with PBS-T followed by incubation with HRP-conjugated anti-mouse or anti-rabbit secondary antibody (DAKO, Santa Clara, CA, USA) at 1/5000 dilution at room temperature for 1 h as appropriate. […]

[8] = tested on: human neuroglioma H4-APP751 stable cell line; design: method as in PMID 20622013; conditions: 15 and 20 μM, no cytotoxicity; cited from earlier work
[9] = Water solubility (preformulation, preliminary studies); type: physicochemical; conditions: unformulated
Procedure: The active pharmaceutical ingredients of TML-6 were synthesized and physico-chemical properties were characterized by SinoPharm Pharmaceutical Company (SPT), Tainan, Taiwan. Preformulation studies on the solubility of TML-6 were conducted by Value Pharmaceutical Services (VPS) Company, Jiansu, China. All the data in this study were conducted using unformulated TML-6. Formulation to optimize the solubility and permeability of TML-6 is under development for toxicological studies.

[10] = tested on: Aβ40 production in N2a/APPswe stable cells; experiment: Aβ40 ELISA of culture medium; type: cell-based, mouse; conditions: different doses up to 20 µg/mL, 24 h
Procedure: as §3

[11] = tested on: Aβ42 production in N2a/APPswe stable cells; experiment: Aβ42 ELISA of culture medium; type: cell-based, mouse; conditions: different doses up to 20 µg/mL, 24 h
Procedure: as §3

[12] = tested on: APP (amyloid precursor protein) in Huh-7 cells; experiment: Western blotting of APP protein expression; type: cell-based, human; conditions: 5 µg/mL, 24 h, vs medium control
Procedure: as §4

[13] = tested on: Aβ in 3xTg AD mouse brain; experiment: Immunofluorescence staining of Aβ in brain of 3xTg AD mice; type: in vivo; conditions: 150 mg/kg/day in diet for four months
Procedure: as §1, with “The AD transgenic mice were fed with the control diet (Laboratory Rodent Diet 5001, LabDiet, St. Louis, MO, USA), the control diet plus traditional curcumin (150 mg/kg), or the control diet plus TML-6 (150 mg/kg) for four months. Diets were stored at 4 °C and were added to mouse cage twice a week.” left out
as §2

[14] = tested on: phospho-mTOR in Huh-7 cells; experiment: Western blotting of phospho-mTOR; type: cell-based, human; conditions: Huh-7, 24 h
Procedure: After cells were seeded and treated with curcumin and TML-6 for 24 h, cells were washed with ice-cold PBS (Phosphate Buffered Saline) and lysed with 100 μL of RIPA cell lysis buffer (Pierce Biotechnology, Rockford, IL, USA) supplemented with protease and phosphatase inhibitors (Roche Diagnostics, Mannheim, Germany). Cell lysates were further cleaned by centrifugation at 14,000 rpm at 4 °C for 15 min. Protein concentration was determined using a Bradford assay (Bio-Rad, Hercules, CA, USA). For Western blot analysis, 20 μg of each sample was prepared for SDS-PAGE (SDS Poly-acrylamide-gel-electrophoresis) and denatured at 95 ℃ for 10 min. The samples prepared from total lysates were loaded and separated by SDS-PAGE (8% or 10%), and then transferred to PVDF membranes (pore size 0.45 μm; PerkinElmer, Waltham, MA, USA) by semi-dry transfer cell (Bio-Rad). After blocking with 5% skim milk in PBS-T (0.1% Tween-20), the membranes were hybridized with primary antibodies at 1/1000 dilution at 4 °C overnight. On the next day, membranes were washed with PBS-T followed by incubation with HRP-conjugated anti-mouse or anti-rabbit secondary antibody (DAKO, Santa Clara, CA, USA) at 1/5000 dilution at room temperature for 1 h as appropriate. Finally, the images were captured by Amersham Imager 600 (GE Healthcare Life Sciences, Marlborough, MA, USA) after being developed using the chemiluminescent HRP substrate (Millipore, Bedford, MA, USA). The primary antibodies used in this study were anti-APP, anti-NF-κB (Cell Signaling Technology, Danvers, MA, USA), anti-Apo E, anti-p-mTOR (Abcam, Cambridge, MA, USA).

curcumin [reference compound]
blood concentrations at each time point [1]: not detectable | learning behavior in Morris water maze (in words) [2]: no significant difference | IC50 [3]: 60 µM | cytotoxicity (CCK-8) ([3]; up to highest concentration of 20 µg/mL): no obvious cytotoxicity | Iba-1 expression vs vehicle (in words) [4]: no significant change | Aβ40 and Aβ42 levels (in words) [5]: significantly decreased | highest dose, at which cytotoxicity was seen (micrographs) [6]: 20 µg/mL | decrease of phosphorylated NF-κB level [7]: 35% | Aβ40 and Aβ42 levels (in words) [8]: significantly decreased | water solubility [9]: less than 0.1 mg/mL | Aβ40 level vs control (in words) [10]: increased to levels higher than those of the control | Aβ42 level vs control (in words) [11]: increased to levels higher than those of the control | reduction of APP protein expression level [12]: 30% | Aβ expression in brain vs vehicle (in words) [13]: trend of reduction but without significant differences | phospho-mTOR suppression (Western blot, in words) [14]: suppressed in a dose-dependent manner
